Results taken from article PMC8694192, “Synthesis and biological evaluation of new derivatives of thieno-thiazole and dihydrothiazolo-thiazole scaffolds integrated with a pyrazoline nucleus as anticancer and multi-targeting kinase inhibitors” (RSC Advances, 2021).
≈ marks a conversion by molar mass, not a printed value. Read-outs that look alike come from different tables or passages of the source.

Assays:
C. albicans ATCC 10231 [1] = test: Agar well diffusion, inhibition zone; format: cell-based; conditions: Candida albicans
C. albicans ATCC 10231 [2] = test: MIC, two-fold serial dilution; conditions: for MIC: Candida albicans, ATCC10231, read-out: MIC C. albicans ATCC 10231
A. fumigatus RCMB 02568 [3] = test: Agar well diffusion, inhibition zone; format: cell-based; conditions: Aspergillus fumigatus
A. fumigatus RCMB 02568 [4] = test: MIC, two-fold serial dilution; conditions: for MIC: Aspergillus fumigatus, RCMB02568, read-out: MIC A. fumigatus RCMB 02568
S. typhi ATCC 14028 [5] = test: MIC, two-fold serial dilution; format: cell-based; conditions: Salmonella enterica, read-out: MIC S. typhi ATCC 14028
S. aureus 25923 [6] = test: Agar well diffusion, inhibition zone; format: cell-based
P. aeruginosa [7] = test: MIC, two-fold serial dilution; conditions: for MIC: Pseudomonas aeruginosa, read-out: MIC P. aeruginosa
E. coli RCMB 010052 [8] = test: MIC, two-fold serial dilution; conditions: Escherichia coli, RCMB010052, read-out: MIC E. coli RCMB 010052
E. coli RCMB 010052 [9] = test: Agar well diffusion, inhibition zone; format: cell-based; conditions: Escherichia coli
S. pneumoniae 010010 [10] = test: Agar well diffusion, inhibition zone; format: cell-based
S. pneumoniae 010010 [11] = test: MIC, two-fold serial dilution; conditions: for MIC: Streptococcus pneumoniae, 010010, read-out: MIC S. pneumoniae 010010
S. aureus 25923 [12] = test: MIC, two-fold serial dilution; conditions: Staphylococcus aureus, 25923, read-out: MIC S. aureus 25923
HepG-2 cells = test: In vitro cytotoxicity, MTT assay, HepG-2; conditions: Homo sapiens, HepG2, read-out: IC50 HepG-2
MCF-7 cells = test: In vitro cytotoxicity, MTT assay, MCF-7; conditions: Homo sapiens, MCF7, read-out: IC50 MCF-7
S. typhi ATCC 14028 [13] = test: Agar well diffusion, inhibition zone; format: cell-based; conditions: Salmonella enterica, read-out: Mean diameter of inhibition zone (mean ± SEM) S. typhi ATCC 14028
E. faecalis [14] = test: Agar well diffusion, inhibition zone; format: cell-based; conditions: Enterococcus faecalis, read-out: Mean diameter of inhibition zone (mean ± SEM) E. faecalis
P. aeruginosa [15] = test: Agar well diffusion, inhibition zone; format: cell-based; conditions: Pseudomonas aeruginosa, read-out: Mean diameter of inhibition zone (mean ± SEM) P. aeruginosa
E. faecalis [16] = test: MIC, two-fold serial dilution; conditions: Enterococcus faecalis, read-out: MIC E. faecalis
[17] = Staphylococcus aureus, 25923, read-out: Mean diameter of inhibition zone (mean ± SEM) S. aureus 25923
[18] = ATCC10231, read-out: Mean diameter of inhibition zone (mean ± SEM) C. albicans ATCC 10231
[19] = RCMB010052, read-out: Mean diameter of inhibition zone (mean ± SEM) E. coli RCMB 010052
[20] = Streptococcus pneumoniae, 010010, read-out: Mean diameter of inhibition zone (mean ± SEM) S. pneumoniae 010010
[21] = RCMB02568, read-out: Mean diameter of inhibition zone (mean ± SEM) A. fumigatus RCMB 02568

Structure (SMILES) | MIC (C. albicans ATCC 10231 [2]) | MIC (A. fumigatus RCMB 02568 [4]) | MIC (S. typhi ATCC 14028 [5]) | zone of inhibition at 500 µg/mL (S. aureus 25923 [6]; [17]) | melting point | MIC (P. aeruginosa [7]) | zone of inhibition at 500 µg/mL (C. albicans ATCC 10231 [1]; [18]) | MIC (E. coli RCMB 010052 [8]) | zone of inhibition at 500 µg/mL (E. coli RCMB 010052 [9]; [19]) | zone of inhibition at 500 µg/mL (S. pneumoniae 010010 [10]; [20]) | MIC (S. pneumoniae 010010 [11]) | MIC (S. aureus 25923 [12]) | zone of inhibition at 500 µg/mL (A. fumigatus RCMB 02568 [3]; [21]) | IC50 (HepG-2 cells) | IC50 (MCF-7 cells) | zone of inhibition at 500 µg/mL (S. typhi ATCC 14028 [13]) | zone of inhibition at 500 µg/mL (E. faecalis [14]) | zone of inhibition at 500 µg/mL (P. aeruginosa [15]) | MIC (E. faecalis [16]) | further results
C[C@@H]1[C@H](O)[C@@H](C)/C=C/C=C/C=C/C=C/C=C/C=C/C=C/[C@H](O[C@@H]2O[C@H](C)[C@@H](O)[C@H](N)[C@@H]2O)C[C@@H]2O[C@](O)(C[C@@H](O)C[C@@H](O)[C@H](O)CC[C@@H](O)C[C@@H](O)CC(=O)O[C@H]1C)C[C@H](O)[C@H]2C(=O)O [Amphotericin B, reference compound] | 67.8 µM (≈ 62.7 µg/mL) | 39.1 µM (≈ 36.2 µg/mL) |  |  |  |  |  |  |  |  |  |  |  |  |  |  |  |  |  | zone of inhibition at 500 µg/mL (C. albicans ATCC 10231 [1]; ATCC10231, well diffusion agar, 0.5 mg/mL, read-out: Mean diameter of inhibition zone (mean ± SEM) C. albicans ATCC 10231): 20 ± 0.78 mm; zone of inhibition at 500 µg/mL (A. fumigatus RCMB 02568 [3]; RCMB02568, well diffusion agar, 0.5 mg/mL, read-out: Mean diameter of inhibition zone (mean ± SEM) A. fumigatus RCMB 02568): 22 ± 0.72 mm
Cc1c(Nc2nc3c(C#N)c(N)sc3s2)c(=O)n(-c2ccccc2)n1C [Compound 3a, 5-Amino-2-((1,5-dimethyl-3-oxo-2-phenyl-2,3-dihydro-1H-pyrazol-4-yl)amino)thieno [3,2-d]thiazole-6-carbonitrile] | 186 µM (≈ 71.2 µg/mL) | 120 µM (≈ 45.9 µg/mL) | 125 µM (≈ 47.9 µg/mL) | 28 ± 0.15 mm | > 300 °C | 40.5 µM (≈ 15.5 µg/mL) | 12 ± 0.51 mm | 19.4 µM (≈ 7.4 µg/mL) | 25 ± 0.15 mm | 21 ± 0.69 mm | 58.9 µM (≈ 22.5 µg/mL) | 16.9 µM (≈ 6.44 µg/mL) | 18 ± 0.25 mm | 25.72 ± 0.03 µM | 27.58 ± 0.01 µM | 17 ± 0.95 mm | 13 ± 0.76 mm | 22 ± 0.44 mm | 185 µM (≈ 70.8 µg/mL) | fold more potency than streptomycin, P. aeruginosa (P. aeruginosa [7]; from MIC): 1.6 folds; MIC C. albicans ATCC 10231 (C. albicans ATCC 10231 [2]; two-fold serial dilution): completely lost; fold more potency than streptomycin, S. pneumoniae (S. pneumoniae 010010 [11]; from MIC): 1.1 folds; MIC A. fumigatus RCMB 02568 (A. fumigatus RCMB 02568 [4]; two-fold serial dilution): completely lost
CCOC(=O)c1c(N)sc2sc(Nc3c(C)n(C)n(-c4ccccc4)c3=O)nc12 [Compound 3b, Ethyl 5-amino-2-((1,5-dimethyl-3-oxo-2-phenyl-2,3-dihydro-1H-pyrazol-4-yl)amino) thieno[3,2-d]thiazole-6-carboxylate] | 189 µM (≈ 81.2 µg/mL) | 62.1 µM (≈ 26.7 µg/mL) | 45.6 µM (≈ 19.6 µg/mL) | 19 ± 0.68 mm | 285 to 287 °C | 125 µM (≈ 53.6 µg/mL) | 11 ± 0.7 mm | 119 µM (≈ 51.1 µg/mL) | 15 ± 0.71 mm | 14 ± 0.84 mm | 179 µM (≈ 76.7 µg/mL) | 79 µM (≈ 33.9 µg/mL) | 21 ± 0.22 mm | 39.02 ± 0.02 µM | 36.77 ± 0.02 µM | 23 ± 0.79 mm | 20 ± 0.24 mm | 17 ± 0.41 mm | 67.4 µM (≈ 29 µg/mL) | 
Cc1c(Nc2nc3c(s2)sc(=S)n3-c2ccccc2)c(=O)n(-c2ccccc2)n1C [Compound 5a, 1,5-Dimethyl-2-phenyl-4-((4-phenyl-5-thioxo-4,5-dihydrothiazolo[4,5-d]thiazol-2-yl)amino)-1H-pyrazol-3(2H)-one] |  | 197 µM (≈ 89.2 µg/mL) | 44.7 µM (≈ 20.2 µg/mL) | 21.2 ± 0.25 mm | 201 to 203 °C |  |  |  |  |  |  | 63.6 µM (≈ 28.7 µg/mL) | 9 ± 0.53 mm | 65.19 ± 0.02 µM | 73.8 ± 0.04 µM | 23 ± 0.05 mm | 13 ± 0.43 mm |  | 183 µM (≈ 82.8 µg/mL) | 
CCn1c(=S)sc2sc(Nc3c(C)n(C)n(-c4ccccc4)c3=O)nc21 [Compound 5b, 4-((4-Ethyl-5-thioxo-4,5-dihydrothiazolo[4,5-d]thiazol-2-yl)amino)-1,5-dimethyl-2-phenyl-1H-pyrazol-3(2H)-one] | 185 µM (≈ 74.7 µg/mL) |  |  | 16 ± 0.88 mm | 183 to 185 °C | 122 µM (≈ 49.1 µg/mL) | 12 ± 0.07 mm | 193 µM (≈ 78 µg/mL) | 10 ± 0.42 mm | 28 ± 0.12 mm | 15.9 µM (≈ 6.4 µg/mL) | 135 µM (≈ 54.6 µg/mL) |  | 48.04 ± 0.03 µM | 43.94 ± 0.02 µM |  | 27 ± 0.41 mm | 18 ± 0.95 mm | 15.2 µM (≈ 6.13 µg/mL) | 
Cc1c(Nc2nc3c(s2)sc(=S)n3-c2ccc(Cl)cc2)c(=O)n(-c2ccccc2)n1C [Compound 5d, 4-((4-(4-Chlorophenyl)-5-thioxo-4,5-dihydrothiazolo[4,5-d]thiazol-2-yl)amino)-1,5-dimethyl-2-phenyl-1H-pyrazol-3(2H)-one] |  |  |  | 25 ± 0.13 mm | 211 to 213 °C | 180 µM (≈ 87.6 µg/mL) |  | 118 µM (≈ 57.4 µg/mL) | 15 ± 0.04 mm |  |  | 18.9 µM (≈ 9.17 µg/mL) |  | 81.5 ± 0.03 µM | 88.56 ± 0.01 µM |  |  | 13 ± 0.11 mm |  | 
COc1cccc2c1C(=O)c1c(O)c3c(c(O)c1C2=O)C[C@@](O)(C(=O)CO)C[C@@H]3O[C@H]1C[C@H](N)[C@H](O)[C@H](C)O1 [Doxorubicin, doxorubicin, reference compound] |  |  |  |  |  |  |  |  |  |  |  |  |  | 5.66 ± 0.01 µM | 4.62 ± 0.01 µM |  |  |  |  | 
[H]/N=C(/N)N[C@H]1[C@H](O)[C@@H](O)[C@H](O[C@@H]2O[C@@H](C)[C@](O)(C=O)[C@H]2O[C@@H]2O[C@@H](CO)[C@H](O)[C@@H](O)[C@@H]2NC)[C@@H](N/C(N)=N\[H])[C@@H]1O [Streptomycin, reference compound] |  |  | 47.1 µM (≈ 27.4 µg/mL) |  |  | 68.2 µM (≈ 39.7 µg/mL) |  | 9.18 µM (≈ 5.34 µg/mL) |  |  | 65.3 µM (≈ 38 µg/mL) | 16.8 µM (≈ 9.74 µg/mL) |  |  |  | 23 ± 0.92 mm |  |  | 19.5 µM (≈ 11.3 µg/mL) | zone of inhibition at 500 µg/mL (S. aureus 25923 [6]; Staphylococcus aureus, 25923, well diffusion agar, 0.5 mg/mL, read-out: Mean diameter of inhibition zone (mean ± SEM) S. aureus 25923): 26 ± 0.45 mm; zone of inhibition at 500 µg/mL (E. coli RCMB 010052 [9]; RCMB010052, well diffusion agar, 0.5 mg/mL, read-out: Mean diameter of inhibition zone (mean ± SEM) E. coli RCMB 010052): 27 ± 0.56 mm; zone of inhibition at 500 µg/mL (S. pneumoniae 010010 [10]; Streptococcus pneumoniae, 010010, well diffusion agar, 0.5 mg/mL, read-out: Mean diameter of inhibition zone (mean ± SEM) S. pneumoniae 010010): 22 ± 0.81 mm; zone of inhibition at 500 µg/mL (E. faecalis [14]; well diffusion agar, 0.5 mg/mL): 25 ± 0.38 mm; zone of inhibition at 500 µg/mL (P. aeruginosa [15]; well diffusion agar, 0.5 mg/mL): 20 ± 0.53 mm
